MIC data for 19 compounds are collected here from patent publication US20090156577A1, “7-AMINO ALKYLIDENYL-HETEROCYCLIC QUINOLONES AND NAPHTHYRIDONES” (priority 2004, published 2009).

Molecules are shown by their SMILES. In brackets after ≈: the same amount, converted by molar mass. Where a name gives a salt, the structure may show the parent alone. Read-outs that look alike come from different tables or passages of the source.

This experiment deals with pathogenic bacteria. The experiment can be described thus: MIC by microdilution broth method (NCCLS M7-A4), in vitro antibacterial activity. In kind it is cell-based. An outline of the steps: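 Broth microdilution per NCCLS M7-A4: two-fold serial dilutions in cation-adjusted Mueller-Hinton broth, inoculum about 5×10^4 CFU/well. Trays incubated 16–20 h at 35 °C. MIC read by comparing growth against no-compound growth controls.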
(Dilution methods test growth across graded concentrations, often in twofold steps.)

[1] abbreviates: Staphylococcus aureus, Organism A: Staphylococcus aureus OC4172, read-out: MIC.
Where [2] appears, read: Streptococcus pneumoniae, ATCC49619, Organism E: Streptococcus pneumoniae ATCC 49619, read-out: MIC.
Setting [3] is: Streptococcus pneumoniae, Organism B: fluoroquinolone-resistant clinical isolate of Streptococcus pneumoniae (QRDR amino acid substitutions).
The mark [4] stands for this setting: Streptococcus pneumoniae, Organism C: fluoroquinolone-resistant clinical isolate of Streptococcus pneumoniae (QRDR amino acid substitutions).
[5] abbreviates: Streptococcus pneumoniae, Organism D: fluoroquinolone-resistant clinical isolate of Streptococcus pneumoniae (QRDR amino acid substitutions).

In the case of `Nc1nc(-n2cc(C(=O)O)c(=O)c3cc(F)c(N4CCC(=C(F)CO)CC4)c(Cl)c32)c(F)cc1F` [Compound 417, 1-(6-Amino-3,5-difluoro-pyridin-2-yl)-8-chloro-6-fluoro-7-[4-(1-fluoro-2-hydroxy-ethylidene)-piperidin-1-yl]-4-oxo-1,4-dihydro-quinoline-3-carboxylic acid], the minimum inhibitory concentration (MIC) is, setting by setting: under setting [1], 0.03 µg/mL (≈ 0.0585 µM); under setting [2], 0.5 µg/mL (≈ 0.975 µM); under setting [3], 8 µg/mL (≈ 15.6 µM); under setting [4], above 16 µg/mL; under setting [5], 4 µg/mL (≈ 7.8 µM).

For the compound `CNCC(F)=C1CN(c2c(F)cc3c(=O)c(C(=O)O)cn(-c4nc(N)c(F)cc4F)c3c2Cl)C1` [Compound 418, 1-(6-Amino-3,5-difluoro-pyridin-2-yl)-8-chloro-6-fluoro-7-[3-(1-fluoro-2-methylamino-ethylidene)-azetidin-1-yl]-4-oxo-1,4-dihydro-quinoline-3-carboxylic acid], the MIC runs as follows: under setting [1], 0.06 µg/mL (≈ 0.121 µM); under setting [2], 1 µg/mL (≈ 2.01 µM); under setting [3], 16 µg/mL (≈ 32.1 µM); under setting [4], above 16 µg/mL; under setting [5], 16 µg/mL (≈ 32.1 µM).

Regarding `Nc1nc(-n2cc(C(=O)O)c(=O)c3cc(F)c(N4CC(=C(F)CO)C4)c(Cl)c32)c(F)cc1F` [Compound 419, 1-(6-Amino-3,5-difluoro-pyridin-2-yl)-8-chloro-6-fluoro-7-[3-(1-fluoro-2-hydroxy-ethylidene)-azetidin-1-yl]-4-oxo-1,4-dihydro-quinoline-3-carboxylic acid], the MIC by setting is: under setting [1], at most 0.015 µg/mL; under setting [2], at most 0.015 µg/mL; under setting [3], 0.03 µg/mL (≈ 0.0619 µM); under setting [4], 0.25 µg/mL (≈ 0.516 µM); under setting [5], 0.06 µg/mL (≈ 0.124 µM).

As for `NCC=C1CN(c2c(F)cc3c(=O)c(C(=O)O)cn(-c4nc(N)c(F)cc4F)c3c2Cl)C1` [Compound 420, 1-(6-Amino-3,5-difluoro-pyridin-2-yl)-7-[3-(2-amino-ethylidene)-azetidin-1-yl]-8-chloro-6-fluoro-4-oxo-1,4-dihydro-quinoline-3-carboxylic acid], the minimal inhibitory concentration (MIC) is, setting by setting: under setting [1], at most 0.015 µg/mL; under setting [2], 0.12 µg/mL (≈ 0.258 µM); under setting [4], 1 µg/mL (≈ 2.15 µM); under setting [5], 0.5 µg/mL (≈ 1.07 µM).

In the case of `CC(CN)=C1CN(c2c(F)cc3c(=O)c(C(=O)O)cn(-c4nc(N)c(F)cc4F)c3c2Cl)C1` [Compound 421, 1-(6-Amino-3,5-difluoro-pyridin-2-yl)-7-[3-(2-amino-1-methyl-ethylidene)-azetidin-1-yl]-8-chloro-6-fluoro-4-oxo-1,4-dihydro-quinoline-3-carboxylic acid], the MIC under setting [1] is 0.06 µg/mL (≈ 0.125 µM), the minimal inhibitory concentration (MIC) under setting [2] is 0.25 µg/mL (≈ 0.521 µM), 2 µg/mL (≈ 4.17 µM) was the least that counted as inhibitory under setting [4] (MIC) and 1 µg/mL (≈ 2.08 µM) was the least that counted as inhibitory under setting [5] (MIC).

On to `C/C(CN)=C1\CCCN(c2c(F)cc3c(=O)c(C(=O)O)cn(-c4nc(N)c(F)cc4F)c3c2Cl)C1` [Compound 422, (Z)-1-(6-Amino-3,5-difluoro-pyridin-2-yl)-7-[3-(2-amino-1-methyl-ethylidene)-piperidin-1-yl]-8-chloro-6-fluoro-4-oxo-1,4-dihydro-quinoline-3-carboxylic acid], for which the MIC reads like this: under setting [1], 0.12 µg/mL (≈ 0.236 µM); under setting [2], 1 µg/mL (≈ 1.97 µM); under setting [3], above 16 µg/mL; under setting [4], above 16 µg/mL; under setting [5], above 16 µg/mL.

On to `C/C(CN)=C1/CCCN(c2c(F)cc3c(=O)c(C(=O)O)cn(-c4nc(N)c(F)cc4F)c3c2Cl)C1` [Compound 423, (E)-1-(6-Amino-3,5-difluoro-pyridin-2-yl)-7-[3-(2-amino-1-methyl-ethylidene)-piperidin-1-yl]-8-chloro-6-fluoro-4-oxo-1,4-dihydro-quinoline-3-carboxylic acid], for which the minimum inhibitory concentration (MIC) reads like this: under setting [1], 0.25 µg/mL (≈ 0.492 µM); under setting [2], 4 µg/mL (≈ 7.88 µM); under setting [3], above 16 µg/mL; under setting [4], above 16 µg/mL; under setting [5], above 16 µg/mL.

With `Cc1c(F)c(N2CCC/C(=C(\F)CN)C2)cc2c1c(=O)c(C(=O)O)cn2C1CC1` [Compound 424, (E)-7-[3-(2-Amino-1-fluoro-ethylidene)-piperidin-1-yl]-1-cyclopropyl-6-fluoro-5-methyl-4-oxo-1,4-dihydro-quinoline-3-carboxylic acid], the MIC under setting [1] is at most 0.015 µg/mL; the MIC under setting [2] was at most 1 µg/mL; the MIC under setting [3] came out at 0.06 µg/mL (≈ 0.149 µM); inhibition of growth under setting [4] (MIC) required 0.5 µg/mL (≈ 1.24 µM); the minimum inhibitory concentration (MIC) under setting [5] was at most 1 µg/mL.

With `Cc1c(F)c(N2CCC/C(=C(/F)CN)C2)cc2c1c(=O)c(C(=O)O)cn2C1CC1` [Compound 425, (Z)-7-[3-(2-Amino-1-fluoro-ethylidene)-piperidin-1-yl]-1-cyclopropyl-6-fluoro-5-methyl-4-oxo-1,4-dihydro-quinoline-3-carboxylic acid], the MIC was determined as 0.06 µg/mL (≈ 0.149 µM) under setting [1]; 1 µg/mL (≈ 2.48 µM) under setting [2]; 4 µg/mL (≈ 9.92 µM) under setting [3]; 16 µg/mL (≈ 39.7 µM) under setting [4]; 8 µg/mL (≈ 19.8 µM) under setting [5].

In the case of `Cc1c(F)c(N2CCC/C(=C(\Cl)CN)C2)cc2c1c(=O)c(C(=O)O)cn2C1CC1` [Compound 426, (E)-7-[3-(2-Amino-1-chloro-ethylidene)-piperidin-1-yl]-1-cyclopropyl-6-fluoro-5-methyl-4-oxo-1,4-dihydro-quinoline-3-carboxylic acid], the MIC by setting is: under setting [1], at most 0.015 µg/mL; under setting [2], 0.06 µg/mL (≈ 0.143 µM); under setting [3], at most 0.5 µg/mL; under setting [4], 1 µg/mL (≈ 2.38 µM); under setting [5], 0.25 µg/mL (≈ 0.595 µM).

As for `Cc1c(F)c(N2CCC/C(=C/CN)C2)cc2c1c(=O)c(C(=O)O)cn2C1CC1` [Compound 427, (Z)-7-[3-(2-Amino-ethylidene)-piperidin-1-yl]-1-cyclopropyl-6-fluoro-5-methyl-4-oxo-1,4-dihydro-quinoline-3-carboxylic acid], the MIC by setting is: under setting [1], at most 0.015 µg/mL; under setting [2], 0.12 µg/mL (≈ 0.311 µM); under setting [3], 2 µg/mL (≈ 5.19 µM); under setting [4], 4 µg/mL (≈ 10.4 µM); under setting [5], 1 µg/mL (≈ 2.59 µM).

As for `CNC/C(Cl)=C1/CCCN(c2cc3c(cc2F)c(=O)c(C(=O)O)cn3C2CC2)C1.Cl` [Compound 428, (E)-7-[3-(1-Chloro-2-methylamino-ethylidene)-piperidin-1-yl]-1-cyclopropyl-6-fluoro-4-oxo-1,4-dihydroquinoline-3-carboxylic Acid Hydrochloride Salt], the MIC is 0.25 µg/mL under setting [1]; 1 µg/mL under setting [2]; above 16 µg/mL under setting [3]; above 16 µg/mL under setting [4]; above 16 µg/mL under setting [5].

Turning to `CNCC(F)=C1CN(c2cc3c(cc2F)c(=O)c(C(=O)O)cn3C2CC2)C1.O=C(O)C(F)(F)F` [Compound 430, 1-Cyclopropyl-6-fluoro-7-[3-(1-fluoro-2-methylamino-ethylidene)-azetidin-1-yl]-4-oxo-1,4-dihydro-quinoline-3-carboxylic acid trifluoroacetic acid salt], the minimum inhibitory concentration (MIC) is, setting by setting: under setting [1], 0.12 µg/mL; under setting [2], 0.5 µg/mL; under setting [3], 8 µg/mL; under setting [4], 2 µg/mL; under setting [5], 4 µg/mL.

Turning to `CNCC(Cl)=C1CN(c2cc3c(cc2F)c(=O)c(C(=O)O)cn3C2CC2)C1` [Compound 431, 7-[3-(1-Chloro-2-methylamino-ethylidene)-azetidin-1-yl]-1-cyclopropyl-6-fluoro-4-oxo-1,4-dihydro-quinoline-3-carboxylic acid trifluoroacetic acid salt], the MIC reads like this: (Staphylococcus aureus, Organism A: Staphylococcus aureus OC4172) 0.06 µg/mL; (Streptococcus pneumoniae, ATCC49619, Organism E: Streptococcus pneumoniae ATCC 49619) 0.25 µg/mL; under setting [3], 4 µg/mL; under setting [4], 1 µg/mL; under setting [5], 2 µg/mL.

In the case of `COc1c(N2CCC(=C(C#N)CN)CC2)c(F)cc2c(=O)c(C(=O)O)cn(C3CC3)c12` [Compound 433, 7-[4-(2-Amino-1-cyano-ethylidene)-piperidin-1-yl]-1-cyclopropyl-6-fluoro-8-methoxy-4-oxo-1,4-dihydro-quinoline-3-carboxylic Acid], the minimal inhibitory concentration (MIC) was at most 0.015 µg/mL under setting [1], 0.12 µg/mL (≈ 0.281 µM) under setting [2], 0.5 µg/mL (≈ 1.17 µM) under setting [4] and 0.5 µg/mL (≈ 1.17 µM) under setting [5].

For the compound `C[C@H]1COc2c(N3CCC(=C(C#N)CN)CC3)c(F)cc3c(=O)c(C(=O)O)cn1c23` [Compound 435, 9-[4-(2-Amino-1-cyano-ethylidene)-piperidin-1-yl]-8-fluoro-(3S)-3-methyl-6-oxo-2,3-dihydro-6H-1-oxa-3a-aza-phenalene-5-carboxylic Acid], the minimal inhibitory concentration (MIC) under setting [1] was 0.12 µg/mL (≈ 0.291 µM), the MIC under setting [2] is 0.5 µg/mL (≈ 1.21 µM), it took 4 µg/mL (≈ 9.7 µM) to inhibit growth under setting [4] (MIC) and the MIC under setting [5] stood at 8 µg/mL (≈ 19.4 µM).

For `N#CC(CN)=C1CCN(c2c(F)cc3c(=O)c(C(=O)O)cn(C4CC4)c3c2OC(F)F)CC1` [Compound 437, 7-[4-(2-Amino-1-cyano-ethylidene)-piperidin-1-yl]-1-cyclopropyl-6-fluoro-8-difluoromethoxy-4-oxo-1,4-dihydro-quinoline-3-carboxylic Acid], the minimal inhibitory concentration (MIC) runs as follows: under setting [1], 0.06 µg/mL (≈ 0.13 µM); under setting [2], 0.12 µg/mL (≈ 0.259 µM); under setting [4], 1 µg/mL (≈ 2.16 µM); under setting [5], 0.25 µg/mL (≈ 0.541 µM).

For `COc1c(N2CCC(=C(C#N)CN)CC2)c(F)cc2c(=O)c(C(=O)O)cn([C@@H]3C[C@@H]3F)c12` [Compound 439, 7-[4-(2-Amino-1-cyano-ethylidene)-piperidin-1-yl]-6-fluoro-(1R,2S)-1-(2-fluoro-cyclopropyl)-8-methoxy-4-oxo-1,4-dihydro-quinoline-3-carboxylic Acid], the MIC is, setting by setting: under setting [1], 0.06 µg/mL (≈ 0.135 µM); under setting [2], 0.25 µg/mL (≈ 0.563 µM); under setting [4], 2 µg/mL (≈ 4.5 µM); under setting [5], 2 µg/mL (≈ 4.5 µM).

Regarding `N#C/C(CN)=C1\CCCN(c2nc3c(cc2F)c(=O)c(C(=O)O)cn3C2CC2)C1` [Compound 441, (E)-7-[3-(2-Amino-1-cyano-ethylidene)-piperidin-1-yl]-1-cyclopropyl-6-fluoro-4-oxo-1,4-dihydro-[1,8]naphthyridine-3-carboxylic Acid], the MIC is 0.5 µg/mL (≈ 1.26 µM) under setting [1]; 8 µg/mL (≈ 20.1 µM) under setting [2]; 8 µg/mL (≈ 20.1 µM) under setting [3]; above 16 µg/mL under setting [4]; above 16 µg/mL under setting [5].

As a reminder, the MIC is the lowest concentration found to suppress growth.
